29 compounds from patent US20250295652A1, “Inhibitors of Molluscum Contagiosum Infection and Methods Using the Same” (priority 2021, published 2025) can be followed below.

For one assay, the system named is mD4-VV surrogate virus. The experiment in a line: microbe, parasite or virus in culture. It is filed as cell-based, mD4/vaccinia hybrid virus. Particulars: Hybrid virus, BSC-1, read-out: mD4 EC50.
Assay [1] addresses E9/A20/D4 proteins (molluscum mD4) (Molluscum contagiosum virus, UniProt Q98260). The assay is described as follows: biochemical.
A further assay has as its system VV. The experiment in a line: microbe, parasite or virus in culture. In kind it is cell-based, vaccinia virus.
The mark [2] stands for this setting: Orthopoxvirus vaccinia, BSC-1, read-out: VV EC50.

The structures appear in SMILES notation. Read-outs that look alike come from different tables or passages of the source.

Chain of E9/A20/D4 proteins (molluscum mD4) (Q98260 1-226): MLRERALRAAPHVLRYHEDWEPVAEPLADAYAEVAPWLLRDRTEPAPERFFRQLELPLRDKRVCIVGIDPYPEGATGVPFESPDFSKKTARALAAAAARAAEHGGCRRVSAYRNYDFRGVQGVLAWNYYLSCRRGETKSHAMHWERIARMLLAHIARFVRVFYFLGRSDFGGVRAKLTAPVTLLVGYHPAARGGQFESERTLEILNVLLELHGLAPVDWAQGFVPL

`O=C(NCc1ccccc1)c1nnsc1NC(=O)N1CCN(c2ccccn2)CC1` [Compound 119, 4-Pyridin-2-yl-piperazine-1-carboxylic acid (4-benzylcarbamoyl-[1,2,3]thiadiazol-5-yl)-amide]: the EC50 in the assay on mD4-VV surrogate virus was found to be 10.3 µM. In addition, in assay [1], the IC50 is over 100 µM. As for `CCC(C(=O)Nc1scnc1C(=O)NCc1ccc(Cl)cc1)c1ccccc1` (stereo not drawn) [Compound 163, 5-(2-Phenylbutanamido)-N-(4-chlorobenzyl)thiazole-4-carboxamide], in the assay with mD4-VV surrogate virus, the EC50 turned out to be 12.1 µM. This compound also had a half-inhibitory concentration (IC50) in assay [1] of over 100 µM.

On to `O=C(NCCN1CCOCC1)Nc1snnc1C(=O)NCc1ccc(F)cc1` [Compound 182, 1-(4-(4-Fluorobenzylcarbamoyl)-1,2,3-thiadiazol-5-yl)-3-(2-morpholinoethyl)urea], for which the EC50 in the assay on mD4-VV surrogate virus was determined as 12.4 µM. For the same compound, the IC50 in assay [1] is over 100 µM. Turning to `CCC(C(=O)Nc1sccc1C(=O)NCc1ccc(F)c(F)c1)c1ccccc1` (stereo not drawn) [Compound 160, 2-(2-Phenylbutanamido)-N-(3,4-difluorobenzyl)thiophene-3-carboxamide], in the assay with mD4-VV surrogate virus, the concentration for a half-maximal effect (EC50) is 10.6 µM. In assay [1], this compound came in with an IC50 of 128 µM. Regarding `O=C(NCc1ccc(Cl)cc1)c1nnsc1NC(=O)C1CCN(c2ccccn2)CC1` [Compound 167, N-(4-(4-Chlorobenzylcarbamoyl)-1,2,3-thiadiazol-5-yl)-1-(pyridin-2-yl)piperidine-4-carboxamide], the concentration giving a half-maximal response (EC50) in the assay with mD4-VV surrogate virus was determined as 17.8 µM. For the same compound, in assay [1], half-maximal inhibition (IC50) required 98.6 µM. With `CCC(C(=O)Nc1sccc1C(=O)NCc1ccc(F)cc1)c1ccccc1` (stereo not drawn) [Compound 179, 2-(2-Phenylbutanamido)-N-(4-fluorobenzyl)thiophene-3-carboxamide], in the assay on mD4-VV surrogate virus, the EC50 amounted to 9.5 µM. The compound also had a 50% inhibitory concentration (IC50) in assay [1] of 51.3 µM. As for `O=C(NCc1ccc(Cl)cc1)c1nnsc1NC(=O)N1CCN(c2ccccc2F)CC1` [Compound 168, 4-(2-Fluoro-phenyl)-piperazine-1-carboxylic acid [4-(4-chloro-benzylcarbamoyl)-[1,2,3]thiadiazol-5-yl]-amide], the concentration giving a half-maximal response (EC50) in the assay on mD4-VV surrogate virus came to 11.9 µM. Also, the IC50 in assay [1] amounted to 26.3 µM. On to `O=C(NCc1ccc(Cl)nc1)c1ccsc1NC(=O)N1CCN(c2ccccn2)CC1` [Compound 170, N-(3-((6-Chloropyridin-3-yl)methylcarbamoyl)thiophen-2-yl)-4-(pyridin-2-yl)piperazine-1-carboxamide], for which, in the assay with mD4-VV surrogate virus, the EC50 turned out to be 14.9 µM. The IC50 in assay [1] was over 200 µM. For `O=C(NCCc1ccccn1)Nc1snnc1C(=O)NCc1ccc(Cl)cc1` [Compound 185, 1-(4-(4-Chlorobenzylcarbamoyl)-1,2,3-thiadiazol-5-yl)-3-(2-(pyridin-2-yl)ethyl)urea], the half-maximal effective concentration (EC50) in the assay with mD4-VV surrogate virus was 9.6 µM. In addition, the IC50 in assay [1] stood at 64.7 µM. For `CCC(C(=O)Nc1sc(C(=O)N(CC)CC)c(C)c1C#N)c1ccccc1` (stereo not drawn) [Compound 66, 4-cyano-N,N-diethyl-3-methyl-5-(2-phenylbutanamido)thiophene-2-carboxamide], in the assay on VV (setting [2]), the EC50 was determined as 42.2 µM. Consider `CCC(C(=O)Nc1snc(C)c1C#N)c1ccccc1` (stereo not drawn) [Compound 68, N-(4-Cyano-3-methyl-isothiazol-5-yl)-2-phenyl-butyramide], for which the EC50 in the assay on VV (setting [2]) came to 8.6 µM. For the compound `COC(=O)c1c(NC(=O)C2(c3ccccc3)CC2)sc(C(N)=O)c1C` [Compound 36, 5-Carbamoyl-4-methyl-2-[(1-phenyl-cyclopropanecarbonyl)-amino]-thiophene-3-carboxylic acid methyl ester], the EC50 in the assay with VV (setting [2]) came to 14.3 µM.

`O=C(NCc1ccc(Cl)cc1)c1nnsc1NC(=O)N1CCN(c2ccccc2)CC1` [Compound 84, N-(4-chlorobenzyl)-5-(4-phenylpiperazine-1-carboxamido)-1,2,3-thiadiazole-4-carboxamide]: the values for the concentration giving a half-maximal response (EC50) with VV (setting [2]) and with mD4-VV surrogate virus were 9.4 µM and 10 µM, respectively. In the case of `CCC(C(=O)N(C(=O)C(CC)c1ccccc1)c1sc(C)c(C)c1C#N)c1ccccc1` (stereo not drawn) [Compound 39, N-(3-Cyano-4,5-dimethyl-thiophen-2-yl)-2-phenyl-N-(2-phenyl-butyryl)-butyramide], the EC50 in the assay with VV (setting [2]) stood at 11 µM. Still for that read-out and setting: to `COC(=O)c1c(NC(=O)C2CCc3ccccc32)sc(C(N)=O)c1C` (stereo not drawn) [Compound 35, 5-Carbamoyl-2-[(indane-1-carbonyl)-amino]-4-methyl-thiophene-3-carboxylic acid methyl ester] belongs 20.4 µM; to `CCC(C(=O)Nc1sncc1C#N)c1ccccc1` (stereo not drawn) [Compound 90, N-(4-Cyano-isothiazol-5-yl)-2-phenyl-butyramide], 21.8 µM; to `CCC(C(=O)Nc1sc(C(=O)OC)cc1C#N)c1ccccc1` (stereo not drawn) [Compound 82, Methyl 5-(2-phenylbutanamido)-4-cyanothiophene-2-carboxylate], 11 µM. For the compound `CCC(C(=O)Nc1ncc(C(=O)OC)s1)c1ccccc1` (stereo not drawn) [Compound 77, methyl 2-(2-phenylbutanamido)thiazole-5-carboxylate], the half-maximal effective concentration (EC50) in the assay on VV (setting [2]) turned out to be 21.4 µM. The same measure, in the same setting: to `CCOC(=O)c1c(NC(=O)C(CC)c2ccccc2)sc(C(=O)N(C)C)c1C` (stereo not drawn) [Compound 5, ethyl 5-(dimethylcarbamoyl)-4-methyl-2-(2-phenylbutanamido)thiophene-3-carboxylate] belongs 29.7 µM; to `CCC(C(=O)Nc1sccc1C(N)=O)c1ccccc1` (stereo not drawn) [Compound 31, 2-(2-phenylbutanamido)thiophene-3-carboxamide], 49.7 µM. In the case of `CC[C@@H](C(=O)Nc1sc(C(N)=O)c(C)c1C(=O)OC)c1ccccc1` [Compound 17, methyl (R)-5-carbamoyl-4-methyl-2-(2-phenylbutanamido)thiophene-3-carboxylate], the 50% effective concentration (EC50) in the assay with VV (read-out: VV EC50) came to 26.8 µM. For `CCOC(=O)c1c(NC(=O)C(CC)c2ccccc2)sc(C(N)=O)c1C` (stereo not drawn) [Compound 8, ethyl 5-carbamoyl-4-methyl-2-(2-phenylbutanamido)thiophene-3-carboxylate], the EC50 in the assay with VV (setting [2]) is 10.3 µM. In the case of `Cc1c(C(N)=O)sc(NC(=O)C2CCCC2)c1C#N` [Compound 40, 4-cyano-5-(cyclopentanecarboxamido)-3-methylthiophene-2-carboxamide], the EC50 in the assay with VV (setting [2]) was 47.4 µM. For the compound `CCC(C(=O)Nc1sc(C(N)=O)c(C)c1C#N)c1ccc([N+](=O)[O-])cc1` (stereo not drawn) [Compound 75, 5-(2-(4-Nitrophenyl)butanamido)-4-cyano-3-methylthiophene-2-carboxamide], in the assay on VV (setting [2]), the EC50 worked out at 35 µM.

As for `CC[C@@H](C(=O)Nc1sc(C(N)=O)c(C)c1C(=O)OC)c1ccccc1` [Compound 16, methyl (R)-5-carbamoyl-4-methyl-2-(2-phenylbutanamido)thiophene-3-carboxylate], in the assay with VV (setting [2]), the EC50 was determined as 16.4 µM. Same read-out and setting: to `CC[C@H](C(=O)Nc1sc(C(N)=O)c(C)c1C(=O)OC)c1ccccc1` [Compound 15, methyl (S)-5-carbamoyl-4-methyl-2-(2-phenylbutanamido)thiophene-3-carboxylate] belongs 17.9 µM.

As for `CCC(C(=O)Nc1sc(C(=O)N(CC)CC)c(C)c1C(=O)OC)c1ccccc1` (stereo not drawn) [Compound 24, methyl 5-(diethylcarbamoyl)-4-methyl-2-(2-phenylbutanamido)thiophene-3-carboxylate], in the assay on VV (setting [2]), the EC50 was determined as 16.4 µM. As for `CCC(C(=O)Nc1sc(C(N)=O)c(C)c1C#N)c1ccccc1` (stereo not drawn) [Compound 9, 4-cyano-3-methyl-5-(2-phenylbutanamido)thiophene-2-carboxamide], in the assay with VV (setting [2]), the EC50 was found to be 11.3 µM. For `CCC(C(=O)Nc1nc(-c2ccccc2)cs1)c1ccccc1` (stereo not drawn) [Compound 76, 2-phenyl-N-(4-phenylthiazol-2-yl)butanamide], in the assay on VV (setting [2]), the concentration giving a half-maximal response (EC50) was 18.4 µM.
